Measurements published in patent publication EP0006352A1, “Hydantoins and thiohydantoins, process for their preparation and pharmaceutical compositions containing them” (BEECHAM GROUP PLC, priority 1978, dated 1980).

How the values were obtained:
[1] = test system: 5-hydroxytryptamine induce bronchoconstriction; assay: Inhibition of 5-hydroxytryptamine induced bronchoconstriction in the anaesthetised, artificially respired guinea-pig (Konzett-Rossler preparation); assay type: in vivo; conditions: Cavia porcellus, iv
Excerpt: (a) The Compounds were examined for their ability to inhibit 5-hydroxytryptamine induce bronchoconstriction in the anaesthetised, artificially respired guinea-pig (Konzett-Rossler preparation).

[2] = test system: bronchoconstriction induced by an histamine aerosol; assay: Protection of conscious guinea-pigs against histamine aerosol induced bronchoconstriction (Herxheimer test); assay type: in vivo; conditions: 10 gg/ml by aerosol
Procedure: (b) The Compounds were also examined for their ability to protect conscious guinea-pigs against bronchoconstriction induced by an histamine aerosol (Herxheimer test). The Compounds were administered by aerosol.
The aerosol was produced in the following manner.
Water soluble compounds were dissolved in normal saline at a concentration of 1 mg/ml. Water insoluble compounds were dissolved in ethanol at a concentration of 10 mg/ml. These solutions were then diluted to the test concentrations with normal saline.

CCCCCCC(C)(O)CCN1C(=O)N(CC#N)C(=O)C1CC=CCCCC(=O)OCC (stereo not drawn) [Compound 2, 1-(3'-hydroxy-3'-methyl-n-nonyl)-3-cyanomethyl-5-(6"-ethoxycarbonyl-n-hex-2"-enyl) hydantoin] was tested, and the ED50 [1] was 1.1 µg/kg, the “increase in pre-convulsive coughing time” value ([2]; 2 minutes after dosing) was 178% and the “increase in pre-convulsive coughing time” value ([2]; after 10 minutes) was 39%.
